Assay results as given in publication PMC5472428 (Drug Design, Development and Therapy, 2017).

What was measured:
[1] = Pharmacokinetic studies in rabbits; type: in vivo; conditions: Albino, rabbit, plasma, po, 1 mg/kg
[2] = poor aqueous solubility and good permeability; cited from earlier work

- AUC [1]: 782 ± 93.7 ng·h/mL
- Cmax [1]: 39.2 ± 9.92 ng/mL
- Tmax [1]: 3.5 ± 0.37 h
- half-life [1]: 11 ± 2.17 h
- k el [1]: 1.72e-05 s⁻¹
Structure (SMILES): CC(C)(C)NC(=O)[C@H]1CC[C@H]2[C@@H]3CC[C@H]4NC(=O)C=C[C@]4(C)[C@H]3CC[C@]12C [FIN, (5alpha,17beta)-(1,1-dimethylethyl)-3-oxo-4-azaandrost-1-ene-17-carboxamide]
- Biopharmaceutics Classification System (BCS) class [2]: Class II
